Assay results: US12473295B2, “Substituted straight chain spiro derivatives” (Janssen Pharmaceutica NV, priority 2019, dated 2025)
Structures can show the parent of a compound that is named as a salt.

Key:
[1] = Mouse PK (in vivo T1/2 and oral bioavailability); conditions: fasted male CD-1 mice, formulating agent HP-β-CD; for half-life: single IV 0.5 or 1.0 mg/kg; for bioavailability: single PO 5 mg/kg
Experimental: 3) Mouse PK (In Vivo T1/2 and Oral Bioavailability)
In vivo pharmacokinetics (PK) were assessed in fasted male CD-1 mice (age 6-8 weeks) following a single intravenous (IV, 0.5 or 1.0 mg/kg administered at 2.5 ml/kg) or oral (PO, 5 mg/kg administered at 10 ml solution/kg) dose of test article formulated in a 20% (w:vol) HP-β-CD solution or in Pyrogen free water.
Plasma and/or whole blood samples were collected from the dorsal metatarsal vein at desired timepoints via serial capillary microsampling (approx. 0.03 mL) using EDTA as an anticoagulant. Concentrations of compound in the plasma and blood samples were analyzed using a qualified LC-MS/MS method. In silico analysis of main pharmacokinetic parameters was performed using WinNonlin (Phoenix™, version 6.1) or similar software. (Results see Table 4)

hERG potassium channel = hERG potassium channel (Homo sapiens (Human), UniProt Q12809); experiment: Effect on membrane potassium current IKr in hERG transfected CHO cells, Protocol 1 (QPatch); assay type: cell-based
hERG potassium channel, sequence (Q12809 whole entry): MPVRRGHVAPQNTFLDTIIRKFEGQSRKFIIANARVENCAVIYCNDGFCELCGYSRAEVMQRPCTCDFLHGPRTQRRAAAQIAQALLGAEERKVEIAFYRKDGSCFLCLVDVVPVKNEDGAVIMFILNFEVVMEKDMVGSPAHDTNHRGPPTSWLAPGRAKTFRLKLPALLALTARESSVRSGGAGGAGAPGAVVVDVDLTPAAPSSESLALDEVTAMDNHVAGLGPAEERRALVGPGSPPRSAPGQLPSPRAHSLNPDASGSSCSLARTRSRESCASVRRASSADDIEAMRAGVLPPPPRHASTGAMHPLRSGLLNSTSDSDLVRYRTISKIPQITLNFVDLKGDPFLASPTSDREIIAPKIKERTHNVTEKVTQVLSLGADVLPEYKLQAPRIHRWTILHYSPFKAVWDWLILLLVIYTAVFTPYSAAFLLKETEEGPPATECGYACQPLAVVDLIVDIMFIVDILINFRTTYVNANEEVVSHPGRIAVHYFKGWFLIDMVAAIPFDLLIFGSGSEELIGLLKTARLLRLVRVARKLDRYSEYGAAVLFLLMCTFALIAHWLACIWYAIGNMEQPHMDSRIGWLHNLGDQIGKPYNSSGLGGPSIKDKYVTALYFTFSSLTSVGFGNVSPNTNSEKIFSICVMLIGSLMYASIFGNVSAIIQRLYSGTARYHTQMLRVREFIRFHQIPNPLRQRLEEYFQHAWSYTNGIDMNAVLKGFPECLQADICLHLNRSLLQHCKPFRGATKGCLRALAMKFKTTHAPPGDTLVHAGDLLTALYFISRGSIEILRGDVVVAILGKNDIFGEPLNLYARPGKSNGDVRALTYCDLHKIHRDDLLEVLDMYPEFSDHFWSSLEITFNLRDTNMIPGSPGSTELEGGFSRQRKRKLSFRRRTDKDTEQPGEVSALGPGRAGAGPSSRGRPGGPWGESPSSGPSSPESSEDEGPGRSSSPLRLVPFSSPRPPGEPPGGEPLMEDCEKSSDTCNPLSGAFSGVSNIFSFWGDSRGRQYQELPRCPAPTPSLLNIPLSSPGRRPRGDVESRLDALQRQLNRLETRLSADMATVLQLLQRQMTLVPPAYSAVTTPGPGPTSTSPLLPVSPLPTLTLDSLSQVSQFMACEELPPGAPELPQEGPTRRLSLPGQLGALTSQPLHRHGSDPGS
Summary of the method: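 Whole-cell automated patch clamp on CHO cells stably expressing hERG, held at −80 mV; the value is the tail current at −40 mV after a 2 s step to +60 mV, at pH 7.4 bath and pH 7.2 pipette. After 0.3% DMSO control, compound was applied at 3×10^−7 M, 3×10^−6 M, 10^−5 M and 3×10^−5 M, 5 min each. IC50 comes from a non-linear least-squares fit of block versus vehicle.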

hERG = hERG (Homo sapiens (Human), UniProt Q12809); experiment: Effect on membrane potassium current IKr in hERG-transfected HEK293 cells, Protocol 2 (SyncroPatch 384PE); assay type: cell-based; conditions: Protocol 2, hERG-transfected HEK293 cells
hERG, sequence (Q12809 whole entry): as above
Experimental: 8) Effect on the Membrane Potassium Current IKr in hERG Transfected Cell Lines
The compound, vehicle control and positive control were tested on hERG-transfected HEK293 cells. A human embryonic kidney cell line (HEK293) with a stable transfection of hERG (Zhou Z et al. Biophysical Journal 1998. 74, 230-241; McDonald T. V. et al, Nature 1997. 388, 289-292) was used (University of Wisconsin, Madison, USA). The cells were kept in culture in MEM (Minimum Essential Medium, Gibco) which was supplemented with (amounts indicated added to 500 ml MEM): 5 ml L-Glutamine-Penicillin-Streptomycin (Sigma), 50 ml Fetal Bovine serum (Bio-Whittaker), 5 ml Non-essential Amino Acids 100× (Gibco), 5 ml sodium pyruvate 100 mM (Gibco) and 4 ml geneticin 50 mg/ml (Gibco) using T175 flasks. The cells were incubated at 37° C. in 5% CO2 atmosphere (in air).
Cell Harvesting for Assay
Cells were harvested as described below using Accumax™ (Sigma) as the dissociating reagent. Cells were then resuspended in a mixture of 33% DMEM/F12 (Dulbecco's Modified Eagle Medium/Nutrient Mixture F-12—Sigma) media/67% extracellular physiological solution.
The flasks were washed twice carefully with ˜5-10 ml phosphate buffered saline (PBS) (Gibco™) containing 2 mM EDTA (Ethylenediaminetetraacetic acid) (Sigma). The cells were dissociated using ˜3 ml of Accumax™ (cell detachment solution) and incubated for ˜5 to 10 min. at 37° C. Cold external physiological solution (2-5 ml) was added and the flasks are incubated at ˜4° C. for 5-10 min. Then, the cell suspension in each flask was gently dissociated with a 5 ml pipette. The cell suspension was transferred to a low binding petri-dish (˜[…]). Each flask was washed with ˜additional 5 ml cold external physiological solution and this solution was also added to the petri-dish. The petri-dish was then incubated for another 5 to 10 minutes at ˜4° C. After another gentle dissociation of the cell suspension in the petri dish, the cells were transferred to a reservoir kept on an orbital shaker at 200 rpm at 16° C. Before experiments were performed, the cells recovered for ˜20 min.
A 10 mM solution of the compound was used and plated in a 384 well plate. Aliquots of the stock solutions are diluted with the recording solution (see section 3) using automated liquid handling (Biomek FXP; final DMSO concentration: 0.03 to 0.3%). A standard range of screening concentrations was used ranging from 1 μM to 30 μM.
A positive control (E-4031) was included within each run to evaluate the sensitivity of the assay.
External and Intracellular Solutions Used in the Experiments
In the table below the composition of the intracellular and external buffer solutions is shown in [mM] (“NMDG” means N-methyl-D-glucamine)
The whole cell patch clamp technique on transfected cells allows the study of ion-channels with no—or limited interference from other ion-channels. The effects of the compounds on the hERG current were studied with an automated planar patch clamp system, SyncroPatch 384PE (Obergrussberger et al, Journal of Laboratory Automation 2016. 21 (6). 779-793). All cells were recorded in the whole cell mode of the patch clamp technique. The module is incorporated in a liquid handling pipetting robot system, Biomek FXP, for application of cells and compounds, vehicle control and positive control.
The different concentrations of the compounds were applied in two cumulatively increasing concentrations for the compounds (1 μM and 10 μM, and 3 μM and 30 μM, respectively). The hERG current was determined as the maximal tail current at −30 mV and percent inhibition upon compound or vehicle and positive control addition was reported.
After cells are caught onto the individual holes of the recording chips using the chip fill solution, the seal is increased with the seal enhancer solution (increased [Ca^2+]; then the cells were washed twice with recording solution before using a pressure protocol to go into the whole cell mode. […]

Structure (SMILES)	half-life [1]	bioavailability [1]	IC50 (hERG potassium channel)	IC50 (hERG)
CCN(C(=O)c1cc(F)ccc1Oc1nncnc1N1CCC2(C1)CN([C@H](CCCN(C)CCC(=O)N(C)C)C(C)C)C2)C(C)C [Compound 246, (R)-2-((5-(2-(6-((3-(dimethylamino)-3-oxopropyl)(methyl)amino)-2-methylhexan-3-yl)-2,6-diazaspiro[3.4]octan-6-yl)-1,2,4-triazin-6-yl)oxy)-N-ethyl-5-fluoro-N-isopropylbenzamide formate]				> 30.2 µM
CC(C)[C@@H](CCC(C)(C)N)N1CC2(CCN(c3ncnnc3Oc3ccc(F)cc3-c3cncnc3C3CC3)C2)C1 (single isomer, unassigned) [Compound 37, (*R)-5-(6-(6-(2-(4-cyclopropylpyrimidin-5-yl)-4-fluorophenoxy)-1,2,4-triazin-5-yl)-2,6-diazaspiro[3.4]octan-2-yl)-2,6-dimethylheptan-2-amine]	> 12 h	< 1%	> 30.2 µM	
CCN(C(=O)c1cc(F)ccc1Oc1nncnc1N1CCC2(C1)CN([C@H](CCCN[C@H](C)COC)C(C)C)C2)C(C)C.O=C(O)/C=C/C(=O)O [Compound 112, N-ethyl-5-fluoro-N-isopropyl-2-(5(2-((R)-6-(((R)-1-methoxypropan-2-yl)amino)-2-methylhexan-3-yl)-2,6-diazaspiro[3.4]octan-6-yl)-1,2,4-triazin-6-yl)oxy)benzamide fumarate]				> 30.2 µM
CCN(C(=O)c1cc(F)ccc1Oc1nncnc1N1CCC2(C1)CN([C@H](CCCNCCC(F)F)C(C)C)C2)C(C)C.O=C(O)/C=C/C(=O)O [Compound 114, (R)-2-(5-(2-(6-((3,3-difluoropropyl)amino)-2-methylhexan-3-yl)-2,6-diazaspiro[3.4]octan-6-yl)-1,2,4-triazin-6-yl)oxy)-N-ethyl-5-fluoro-N-isopropylbenzamide fumarate]				> 30.2 µM
COCCNCCC[C@H](C(C)C)N1CC2(CCN(c3ncnnc3Oc3ccc(F)cc3C(=O)N(C(C)C)C(C)C)C2)C1 (single isomer, unassigned) [Compound 99, (*R)-5-fluoro-N,N-isopropyl-2-((5-(2-(6-((2-methoxyethyl)amino)-2-methylhexan-3-yl)-2,6-diazaspiro[3.4]octan-6-yl)-1,2,4-triazin-6-yl)oxy)benzamide oxalate]				> 30.2 µM

Now from value to molecule, other results behind:

half-life [1]	bioavailability [1]	Structure (SMILES)	IC50 (hERG potassium channel)	IC50 (hERG)
15 h	< 1%	CCN(C(=O)c1cc(F)ccc1Oc1nncnc1N1CCC2(C1)CN([C@H](CCCN)C(C)C)C2)C(C)C [Compound 1, (R)-2-((5-(2-(6-amino-2-methylhexan-3-yl)-2,6-diazaspiro[3.4]octan-6-yl)-1,2,4-triazin-6-yl)oxy)-N-ethyl-5-fluoro-N-isopropylbenzamide formate]	> 30.2 µM	
7 h	< 1%	CCN(C(=O)c1cc(F)ccc1Oc1nncnc1N1CCC2(C1)CN([C@H](CCCN(C)CCNC(C)=O)C(C)C)C2)C(C)C.O=C(O)/C=C/C(=O)O [Compound 245, (R)-2-((5-(2-(6-((2-acetamidoethyl)(methyl)amino)-2-methylhexan-3-yl)-2,6-diazaspiro[3.4]octan-6-yl)-1,2,4-triazin-6-yl)oxy)-N-ethyl-5-fluoro-N-isopropylbenzamide fumarate]		> 30.2 µM
8.7 h	6.1%	CCN(C(=O)c1cc(F)ccc1Oc1nncnc1N1CCC2(C1)CN([C@H](CCCNCC(OC)OC)C(C)C)C2)C(C)C.O=C(O)/C=C/C(=O)O [Compound 104, (R)-2-((5-(2-(6-((2,2-dimethoxyethyl)amino)-2-methylhexan-3-yl)-2,6-diazaspiro[3.4]octan-6-yl)-1,2,4-triazin-6-yl)oxy)-N-ethyl-5-fluoro-N-isopropylbenzamide fumarate]		> 30.2 µM
